Test results reported in US5530161A, “Hydroxamic acid based collagenase inhibitors” (priority 1994, dated 1996).

Key:
stromelysin = stromelysin (Homo sapiens, UniProt P08254); experiment: Stromelysin inhibition activity (14C-acetylated casein digestion, Cawston et al); type: biochemical
collagenase = biological target: T1, collagenase (Homo sapiens, UniProt P03956); details: for IC50: collagenase, 37°, 16 hours, pH 7.5, 14C collagen
T1 sequence (P03956 100-469): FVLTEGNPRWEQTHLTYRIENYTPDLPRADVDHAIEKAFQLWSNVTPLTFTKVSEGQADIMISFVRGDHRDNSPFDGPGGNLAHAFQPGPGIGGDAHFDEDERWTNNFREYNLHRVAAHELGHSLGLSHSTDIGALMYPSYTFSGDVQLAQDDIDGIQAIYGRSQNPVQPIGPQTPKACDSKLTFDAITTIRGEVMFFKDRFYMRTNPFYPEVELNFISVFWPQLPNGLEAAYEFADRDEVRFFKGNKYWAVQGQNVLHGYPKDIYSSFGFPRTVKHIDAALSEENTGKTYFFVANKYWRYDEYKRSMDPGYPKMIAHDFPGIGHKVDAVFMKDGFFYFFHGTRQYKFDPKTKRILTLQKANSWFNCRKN
Source text: The collagen was acetylated ^14 C collagen prepared by the method of Cawston and Murphy (Methods in Enzymology, 80, 711, 1981), hereby incorporated by reference. The samples were centrifuged to sediment undigested collagen and an aliquot of the radioactive supernatant removed for assay on a scintillation counter as a measure of hydrolysis.

Sequence of stromelysin (P08254 100-477): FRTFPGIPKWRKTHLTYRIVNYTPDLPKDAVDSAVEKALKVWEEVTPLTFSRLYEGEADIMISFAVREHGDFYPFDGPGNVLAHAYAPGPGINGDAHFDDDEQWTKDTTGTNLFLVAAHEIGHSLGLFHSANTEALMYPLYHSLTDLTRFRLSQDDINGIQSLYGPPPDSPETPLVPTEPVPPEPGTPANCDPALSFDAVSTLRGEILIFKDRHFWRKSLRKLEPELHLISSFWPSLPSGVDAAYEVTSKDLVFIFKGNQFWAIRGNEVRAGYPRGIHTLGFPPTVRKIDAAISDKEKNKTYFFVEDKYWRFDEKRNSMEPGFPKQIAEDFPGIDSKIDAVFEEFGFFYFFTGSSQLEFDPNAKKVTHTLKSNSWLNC

Structure (SMILES) | IC50 (stromelysin; stromelysin, 37°, 16 hours, pH 7.5, 14C acetylated casein) | IC50 (collagenase) | protoglycanase-inhibiting activity (in words) (stromelysin; qualitative statement, protoglycanase = stromelysin (b9)) | collagenase-inhibiting activity (in words) (collagenase; qualitative statement)
CNC(=O)[C@H](Cc1ccccc1)NC(=O)[C@H](CC(C)C)[C@H](CSc1ccccc1)C(=O)NO [Example 1, [4-(N-Hydroxyamino)-2R-isobutyl-3S-(phenylthiomethyl)-succinyl]-L-phenylalanine-N-methylamide] | 10 nM | 20 nM |  | 
CNC(=O)[C@H](Cc1ccccc1)NC(=O)[C@H](CC(C)C)[C@H](CSc1cccs1)C(=O)NO [Example 2, [4-(N-Hydroxyamino)-2R-isobutyl-3S-(thienylthiomethyl)succinyl]-L-phenylalanine-N-methylamide] |  |  | good | good
CNC(=O)[C@H](Cc1ccccc1)NC(=O)[C@H](CC(C)C)[C@H](CS)C(=O)NO [Example 5, [4-(N-Hydroxyamino)-2R-isobutyl-3S-(mercaptomethyl)succinyl]-L-phenylalanine-N-methylamide] |  | 3 nM |  | 
